These results are taken from ChEMBL document CHEMBL1201862, “PubChem BioAssay data set” (2004).

Test systems include SNB-78; DMS-114; DMS-273; KM-20L2; XF498; RXF 631; LXFL 529; HOP-18; DLD-1.
Holding throughout (test): DTP human tumour cell line panel, 48 h

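Cells were grown in 96-well plates and exposed to each compound for 48 hours at five concentrations; endpoints were interpolated linearly between bracketing concentrations, or set to the highest concentration if not reached. The concentration for 50% growth inhibition is given as GI50.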 Activity calls are given as the source filed them. Cut-off read from the data, not from the text of the source: active = GI50 up to about 1.1 µM and inactive = higher.

A word on the GI50: it is the concentration giving 50% growth inhibition. For the molecule `COC1CC(CC2CCC(C)C(C(C)C(=O)O)O2)OC2(OC(C)(C3CCC(C)(C4OC(C5OC(O)(CO)C(C)CC5C)CC4C)O3)CC2C)C1C` (centres undefined), the GI50 in the assay on SNB-78 is 1510 nM (inactive); in the assay with DMS-114 it was < 15.1 nM (active); in the assay on DMS-273 it was 71.9 nM (active); in the assay with KM-20L2, 124 nM (active); in the assay on XF498 it was 42.3 nM (active); with RXF 631 it was 73.8 nM (active). Further, the figures for the GI50 with LXFL 529, in the assay on HOP-18 and in the assay with DLD-1 were 53.5 nM (active), 284 nM (active) and 510 nM (active), respectively.
